# Data taken from US20220177538A1, “CO-AGONISTS AT GLP-1 AND GIP RECEPTORS SUITABLE FOR ORAL DELIVERY” (Novo Nordisk A/S, priority 2020, published 2022).
# Like-named read-outs stand apart in the source and are kept apart here. Starred links: 1 amine or outer side, 2 acyl side, 3 side chain; linkers in the order of their positions; H or OH if unused. Non-standard residues stand in square brackets, D forms with d. Residues, ends and D or L forms follow the SMILES beside them. Groups on a side chain read outwards from the residue. *: point of attachment. C18 diacid = O=C(O)CCCCCCCCCCCCCCCCC(=O)*; γGlu = O=C(O)[C@H](CCC(=O)[*:2])N[*:1]; εLys = N[C@@H](CCCCN[*:1])C(=O)[*:2]; Aib = CC(C)(N)C(=O)O
# Tests used:
# [1] = Pharmacokinetic study in minipigs after i.v. administration; settings: female, Göttingen, minipig, in vivo, iv
# Procedure: The purpose of this example is to determine the half-life in vivo of the derivatives of the present invention after i.v. administration to minipigs, i.e. the prolongation of their time in the body and thereby their time of action. This is done in a pharmacokinetic (PK) study, where the terminal half-life of the derivative in question is determined. By terminal half-life is generally meant the period of time it takes to halve a certain plasma concentration, measured after the initial distribution phase.
# Female Göttingen minipigs were obtained from Ellegaard Göttingen Minipigs (Dalmose, Denmark) approximately 7-14 months of age and weighing from approximately 16-35 kg were used in the studies. The minipigs were housed individually and fed restrictedly once daily with SDS minipig diet (Special Diets Services, Essex, UK).
# After at 3 weeks of acclimatisation two permanent central venous catheters were implanted in vena cava caudalis in each animal. The animals were allowed 1 week recovery after the surgery, and were then used for repeated pharmacokinetic studies with a suitable wash-out period between successive derivative dosing.
# The animals were fasted for approximately 18 hours before dosing and from 0 to 4 hours after dosing but had adlibitum access to water during the whole period.
# The sodium salts of compounds of Examples 1 were dissolved to a concentration of 20-40 nmol/mL in a buffer containing 0.007% polysorbate 20, 50 mM sodium phosphate, 70 mM sodium chloride, pH 7.4. […]
# Plasma was pipetted into Micronic tubes on dry ice and kept at −20° C. until analysed for plasma concentration of the compounds using ELISA, or a similar antibody-based assay, or LCMS. Individual plasma concentration-time profiles were analysed by a non-compartmental model in Phoenix WinNonLin ver. […] (Pharsight Inc., Mountain View, Calif., USA), and the resulting terminal half-lives (harmonic mean) determined.
# human GLP-1 receptor = human GLP-1 receptor (Homo sapiens, UniProt P43220); assay: In vitro functional potency, CRE luciferase reporter, whole BHK cells (hGLP-1R); format: cell-based; parameters: expressed in transfected cells; host or cells: BHK (parent line BHKTS13), clone BHK CRE luc2P hGLP-1R; settings: BHK CRE luc2P hGLP-1R cells
# Summary of the method: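 Potencies are replicate means (n≥2) from non-linear log(agonist) vs response fits of CRE-driven luminescence. Cells were overnight-plated BHK CRE luc2P lines transfected with human GIPR or GLP-1R, 5000/well.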
# [2] = hGLP-1R, CRE Luc 1% HSA EC50, 1% HSA
# [3] = 0% HSA, read-out: hGLP-1R, CRE Luc 0% HSA EC50
# Chain of human GLP-1 receptor (P43220 24-463): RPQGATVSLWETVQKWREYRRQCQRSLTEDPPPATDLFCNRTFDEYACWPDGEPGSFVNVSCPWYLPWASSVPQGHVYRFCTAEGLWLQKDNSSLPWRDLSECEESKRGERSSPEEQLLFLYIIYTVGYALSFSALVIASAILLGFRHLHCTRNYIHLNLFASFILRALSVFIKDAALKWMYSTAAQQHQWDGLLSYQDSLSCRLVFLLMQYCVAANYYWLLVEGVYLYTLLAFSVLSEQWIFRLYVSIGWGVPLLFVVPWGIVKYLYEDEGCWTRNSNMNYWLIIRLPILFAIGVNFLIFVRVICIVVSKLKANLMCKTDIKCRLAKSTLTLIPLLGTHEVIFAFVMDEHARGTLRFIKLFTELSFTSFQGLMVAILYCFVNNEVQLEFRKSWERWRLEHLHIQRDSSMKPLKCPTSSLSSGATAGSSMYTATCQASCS
SMILES,"half-life ([1]; i.v. administration to minipigs, harmonic mean, read-out: Terminal half-life t1/2 (converted)) [h]","EC50 (human GLP-1 receptor; hGLP-1R, CRE Luc 0% HSA EC50, 0% HSA) [nM]",EC50 (human GLP-1 receptor; [2]) [nM],half-life [1] [h],EC50 (human GLP-1 receptor; [3]) [nM]
CC[C@H](C)[C@H](NC(=O)[C@H](Cc1ccccc1)NC(=O)[C@H](CCC(=O)O)NC(=O)[C@H](CCCNC(=N)N)NC(=O)[C@H](C)NC(=O)[C@H](C)NC(=O)[C@H](CCC(N)=O)NC(=O)[C@H](CCCCNC(=O)[C@@H](N)CCCCNC(=O)[C@@H](N)CCCCNC(=O)CC[C@H](NC(=O)CCCCCCCCCCCCCCCCC(=O)O)C(=O)O)NC(=O)[C@H](CCC(=O)O)NC(=O)[C@H](CC(C)C)NC(=O)[C@H](CC(C)C)NC(=O)[C@@H](NC(=O)[C@H](CO)NC(=O)[C@H](Cc1ccc(O)cc1)NC(=O)[C@H](CC(=O)O)NC(=O)[C@H](CO)NC(=O)[C@@H](NC(=O)[C@H](Cc1ccccc1)NC(=O)[C@@H](NC(=O)CNC(=O)[C@H](CCC(=O)O)NC(=O)C(C)(C)NC(=O)[C@@H](N)Cc1ccc(O)cc1)[C@@H](C)O)[C@@H](C)O)[C@@H](C)CC)C(=O)N[C@@H](CCC(=O)O)C(=O)N[C@@H](Cc1c[nH]c2ccccc12)C(=O)N[C@@H](CC(C)C)C(=O)N[C@@H](CC(C)C)C(=O)N[C@@H](CCCNC(=N)N)C(=O)NCC(=O)NCC(=O)N1CCC[C@H]1C(=O)N[C@@H](CCC(=O)O)C(=O)N[C@@H](CO)C(=O)NCC(=O)N[C@@H](C)C(=O)N1CCC[C@H]1C(=O)N1CCC[C@H]1C(=O)N1CCC[C@H]1C(=O)N[C@@H](CO)C(=O)O [Compound 28] (H-Y[Aib]EGTFTSDYSILLEK([εLys-εLys-γGlu-C18 diacid])QAAREFIEWLLRGGPESGAPPPS-OH),35,0.0062,0.139,–,–
CC[C@H](C)[C@H](NC(=O)[C@H](Cc1ccccc1)NC(=O)[C@H](CCC(=O)O)NC(=O)[C@H](CCC(N)=O)NC(=O)[C@H](C)NC(=O)[C@H](C)NC(=O)[C@H](CCC(N)=O)NC(=O)[C@H](CCCCNC(=O)[C@@H](N)CCCCNC(=O)[C@@H](N)CCCCNC(=O)CC[C@H](NC(=O)CCCCCCCCCCCCCCCCC(=O)O)C(=O)O)NC(=O)[C@H](CCC(=O)O)NC(=O)[C@H](CC(C)C)NC(=O)[C@H](CC(C)C)NC(=O)[C@@H](NC(=O)[C@H](CO)NC(=O)[C@H](Cc1ccc(O)cc1)NC(=O)[C@H](CC(=O)O)NC(=O)[C@H](CO)NC(=O)[C@@H](NC(=O)[C@H](Cc1ccccc1)NC(=O)[C@@H](NC(=O)CNC(=O)[C@H](CCC(=O)O)NC(=O)C(C)(C)NC(=O)[C@@H](N)Cc1ccc(O)cc1)[C@@H](C)O)[C@@H](C)O)[C@@H](C)CC)C(=O)N[C@@H](CCC(=O)O)C(=O)N[C@@H](Cc1c[nH]c2ccccc12)C(=O)N[C@@H](CC(C)C)C(=O)N[C@@H](CC(C)C)C(=O)N[C@@H](C)C(=O)NCC(=O)NCC(=O)N1CCC[C@H]1C(=O)N[C@@H](CO)C(=O)N[C@@H](CO)C(=O)NCC(=O)N[C@@H](C)C(=O)N1CCC[C@H]1C(=O)N1CCC[C@H]1C(=O)N1CCC[C@H]1C(=O)N[C@@H](CO)C(=O)O [Compound 29] (H-Y[Aib]EGTFTSDYSILLEK([εLys-εLys-γGlu-C18 diacid])QAAQEFIEWLLAGGPSSGAPPPS-OH),–,–,0.379,68,0.0168
CC[C@H](C)[C@H](NC(=O)[C@H](Cc1ccccc1)NC(=O)[C@H](CCC(=O)O)NC(=O)[C@H](CCCNC(=N)N)NC(=O)[C@H](C)NC(=O)[C@H](C)NC(=O)[C@H](CCC(N)=O)NC(=O)[C@H](CCCCNC(=O)[C@@H](N)CCCCNC(=O)[C@@H](N)CCCCNC(=O)CC[C@H](NC(=O)CCCCCCCCCCCCCCCCC(=O)O)C(=O)O)NC(=O)[C@H](CCC(=O)O)NC(=O)[C@H](CC(C)C)NC(=O)[C@H](CC(C)C)NC(=O)[C@@H](NC(=O)[C@H](CO)NC(=O)[C@H](Cc1ccc(O)cc1)NC(=O)[C@H](CC(=O)O)NC(=O)[C@H](CO)NC(=O)[C@@H](NC(=O)[C@H](Cc1ccccc1)NC(=O)[C@@H](NC(=O)CNC(=O)[C@H](CCC(=O)O)NC(=O)C(C)(C)NC(=O)[C@@H](N)Cc1ccc(O)cc1)[C@@H](C)O)[C@@H](C)O)[C@@H](C)CC)C(=O)N[C@@H](CCC(=O)O)C(=O)N[C@@H](Cc1c[nH]c2ccccc12)C(=O)N[C@@H](CC(C)C)C(=O)N[C@@H](CC(C)C)C(=O)N[C@@H](C)C(=O)NCC(=O)NCC(=O)N1CCC[C@H]1C(=O)N[C@@H](CO)C(=O)N[C@@H](CO)C(=O)NCC(=O)N[C@@H](C)C(=O)N1CCC[C@H]1C(=O)N1CCC[C@H]1C(=O)N1CCC[C@H]1C(=O)N[C@@H](CO)C(=O)O [Compound 31] (H-Y[Aib]EGTFTSDYSILLEK([εLys-εLys-γGlu-C18 diacid])QAAREFIEWLLAGGPSSGAPPPS-OH),–,–,0.202,49,0.0042
